Here are results for two compounds from ChEMBL document CHEMBL4706653, “Ultra-short lipopeptides against gram-positive bacteria while alleviating antimicrobial resistance” (Eur J Med Chem, 2021).

The subject of one test is Cell membrane. The test can be described thus: Induction of membrane disruption in Staphylococcus aureus ATCC 25923 assessed as PI-positive cells at 4 times MIC measured after 30 mins by propidium iodide staining based flow cytometry relative to control.
A further test concerns Staphylococcus aureus. In words: Antimicrobial activity against Staphylococcus aureus ATCC 25923 infected in neutropenia BALB/c mouse assessed as reduction in bacterial load in spleen at 10 mg/kg, ip administered staring from 2 hrs post infection and measured 8 hrs post-infected in presence of ciprofloxacin. To be noted: time 6.0 hrs. In kind it is functional, organism-based.

The source made the active and inactive calls. No cut-off for these calls is given here. Residues, ends and D or L forms follow the SMILES beside them. *: point of attachment. Myristoyl = CCCCCCCCCCCCCC(=O)*; Lauroyl = CCCCCCCCCCCC(=O)*

For `CCCCCCCCCCCC(=O)N[C@@H](CCCNC(=N)N)C(=O)N[C@@H](CCCNC(=N)N)C(=O)N[C@@H](Cc1c[nH]c2ccccc12)C(N)=O` (Lauroyl-Arg-Arg-Trp-NH2), the Activity in the test on Cell membrane was 77.2%. With `CCCCCCCCCCCCCC(=O)N[C@@H](CCCNC(=N)N)C(=O)N[C@@H](Cc1c[nH]c2ccccc12)C(=O)N[C@@H](Cc1c[nH]c2ccccc12)C(N)=O` (Myristoyl-Arg-Trp-Trp-NH2), the outcome in the test with Staphylococcus aureus was Active.
